Test results taken from patent US8034940B2, “Modulators of glucocorticoid receptor, AP-1, and/or NF-κB activity and use thereof” (Bristol-Myers Squibb Company, priority 2006, dated 2011).

Target: T1, human full-length glucocorticoid receptor (Homo sapiens, UniProt P04150)
T1 sequence (P04150 1-777): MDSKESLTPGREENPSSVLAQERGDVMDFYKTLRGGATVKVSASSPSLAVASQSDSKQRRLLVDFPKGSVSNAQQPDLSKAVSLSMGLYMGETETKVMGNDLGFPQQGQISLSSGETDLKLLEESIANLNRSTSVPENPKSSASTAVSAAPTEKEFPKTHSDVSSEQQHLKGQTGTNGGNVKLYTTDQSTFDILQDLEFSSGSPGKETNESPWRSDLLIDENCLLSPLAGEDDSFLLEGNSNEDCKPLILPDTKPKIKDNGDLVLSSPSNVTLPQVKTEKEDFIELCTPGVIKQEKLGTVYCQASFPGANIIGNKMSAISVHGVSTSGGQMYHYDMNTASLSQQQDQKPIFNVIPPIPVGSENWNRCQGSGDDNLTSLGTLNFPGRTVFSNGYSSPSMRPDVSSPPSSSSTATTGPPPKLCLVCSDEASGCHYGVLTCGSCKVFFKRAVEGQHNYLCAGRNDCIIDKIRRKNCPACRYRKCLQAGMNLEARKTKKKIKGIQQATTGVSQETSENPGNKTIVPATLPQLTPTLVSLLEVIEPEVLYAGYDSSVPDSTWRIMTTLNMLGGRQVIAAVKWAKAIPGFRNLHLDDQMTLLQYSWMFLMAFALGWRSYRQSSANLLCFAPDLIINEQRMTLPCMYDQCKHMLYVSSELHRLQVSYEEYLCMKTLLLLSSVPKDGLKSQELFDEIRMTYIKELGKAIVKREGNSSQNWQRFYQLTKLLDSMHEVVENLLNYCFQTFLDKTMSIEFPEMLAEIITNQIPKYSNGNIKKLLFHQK
Experiment: Glucocorticoid Receptor Binding Assay (I), fluorescence polarization, Fluormone GS Red
Set-up: purified human recombinant full-length glucocorticoid receptor; purchased Invitrogen Part #2893
Conditions: not given
Description: Glucocorticoid Receptor Binding Assay (I)^a
Briefly, purified human recombinant full-length glucocorticoid receptor (2 nM) was mixed with fluorescently labeled glucocorticoid (1 nM Fluormone GS Red) in the presence or absence of test compound. After two hour incubation at room temperature in the dark, the fluorescence polarization (FP) of the samples was measured. […] Test compounds were analyzed in the concentration range from 8.5E-05 μM to 5 μM.

SMILES | Ki [nM]
Cc1nnc(NC(=O)C(C)(C)[C@H]2c3ccccc3Oc3nc(-c4ccc(C(=O)N5CCC(=O)CC5)cc4)ccc32)s1 [Example 475] | 18.3

Same assay, conditions: GR Binding Assay (I); read-out: GR (Ki, nM) (GR Binding Assay (I))

SMILES | Ki [nM]
CCCCN(C)C(=O)c1ccc(-c2ccc3c(n2)Oc2ccccc2[C@@H]3C(C)(C)C(=O)Nc2nncs2)cc1 [Example 292] | 10.8
CC(C)(C(=O)Nc1nncs1)[C@H]1c2ccccc2Oc2nc(-c3ccc(C(=O)N4CCNC(=O)C4)cc3)ccc21 [Example 296] | 19.1
CN1CCCN(C(=O)c2ccc(-c3ccc4c(n3)Oc3ccccc3[C@@H]4C(C)(C)C(=O)Nc3nncs3)cc2)CC1 [Example 297] | > 1150
CN(CCc1ccccn1)C(=O)c1ccc(-c2ccc3c(n2)Oc2ccccc2[C@@H]3C(C)(C)C(=O)Nc2nncs2)cc1 [Example 299] | 13.3
CN(CCOC(C)(C)C)C(=O)c1ccc(-c2ccc3c(n2)Oc2ccccc2[C@@H]3C(C)(C)C(=O)Nc2nncs2)cc1 [Example 302] | 126
CC(C)(C(=O)Nc1nncs1)[C@H]1c2ccccc2Oc2nc(-c3ccc(C(=O)N(CCO)CCO)cc3)ccc21 [Example 304] | 149
CN(C)[C@H]1CCN(C(=O)c2ccc(-c3ccc4c(n3)Oc3ccccc3[C@@H]4C(C)(C)C(=O)Nc3nncs3)cc2)C1 [Example 308] | 313
CC(C)(C(=O)Nc1nncs1)[C@H]1c2ccccc2Oc2nc(-c3ccc(C(=O)N4CCNC(=O)CC4)cc3)ccc21 [Example 311] | 25.8
CN(C(=O)c1ccc(-c2ccc3c(n2)Oc2ccccc2[C@@H]3C(C)(C)C(=O)Nc2nncs2)cc1)C1CCS(=O)(=O)C1 (stereo partly shown) [Example 313] | 4.65
CC(C)CC1CCCN1C(=O)c1ccc(-c2ccc3c(n2)Oc2ccccc2[C@@H]3C(C)(C)C(=O)Nc2nncs2)cc1 (stereo partly shown) [Example 317] | 23.7
CN(C)C(=O)CN(C)C(=O)c1ccc(-c2ccc3c(n2)Oc2ccccc2[C@@H]3C(C)(C)C(=O)Nc2nncs2)cc1 [Example 319] | 110
CCN(CCO)C(=O)c1ccc(-c2ccc3c(n2)Oc2ccccc2[C@@H]3C(C)(C)C(=O)Nc2nncs2)cc1 [Example 320] | 13.1
CNC(=O)C1CCN(C(=O)c2ccc(-c3ccc4c(n3)Oc3ccccc3[C@@H]4C(C)(C)C(=O)Nc3nncs3)cc2)CC1 [Example 321] | 30.6
CC(C)(C(=O)Nc1nncs1)[C@H]1c2ccccc2Oc2nc(-c3ccc(C(=O)N4CCCC(=O)CC4)cc3)ccc21 [Example 322] | 18.9
CC(C)(C(=O)Nc1nncs1)[C@H]1c2ccccc2Oc2nc(-c3ccc(C(=O)N4CCCOCC4)cc3)ccc21 [Example 323] | 3.69
CN(CCC#N)C(=O)c1ccc(-c2ccc3c(n2)Oc2ccccc2[C@@H]3C(C)(C)C(=O)Nc2nncs2)cc1F [Example 326] | 10.5
CN(CC(=O)O)C(=O)c1ccc(-c2ccc3c(n2)Oc2ccccc2[C@@H]3C(C)(C)C(=O)Nc2nncs2)cc1 [Example 338] | 312
CCCN(C)C(=O)c1ccc(-c2ccc3c(n2)Oc2ccccc2[C@@H]3C(C)(C)C(=O)Nc2nncs2)cc1Cl [Example 346] | 3.04
COc1cc(-c2ccc3c(n2)Oc2ccccc2[C@@H]3C(C)(C)C(=O)Nc2nncs2)ccc1C(=O)N(C)C [Example 347] | 5.63

SMILES | Ki [nM]
CC(C)(C(=O)Nc1nncs1)[C@H]1c2ccccc2Oc2nc(-c3ccc(C(=O)NC4CCCC4)cc3)ccc21 [Example 351] | 147
CC(C)(C)NC(=O)c1ccc(-c2ccc3c(n2)Oc2ccccc2[C@@H]3C(C)(C)C(=O)Nc2nncs2)cc1 [Example 352] | 42.1
CC(C)NC(=O)c1ccc(-c2ccc3c(n2)Oc2ccccc2[C@@H]3C(C)(C)C(=O)Nc2nncs2)cc1 [Example 353] | 13
COCCNC(=O)c1ccc(-c2ccc3c(n2)Oc2ccccc2[C@@H]3C(C)(C)C(=O)Nc2nncs2)cc1 [Example 355] | 19.6
CCCNC(=O)c1ccc(-c2ccc3c(n2)Oc2ccccc2[C@@H]3C(C)(C)C(=O)Nc2nncs2)cc1 [Example 358] | 40.5
CC(C)(C(=O)Nc1nncs1)[C@H]1c2ccccc2Oc2nc(-c3ccc(C(=O)NCCCO)cc3)ccc21 [Example 359] | 30.1
CC(C)(C(=O)Nc1nncs1)[C@H]1c2ccccc2Oc2nc(-c3ccc(C(=O)N[C@H]4CCC[C@H]4C(N)=O)cc3)ccc21 [Example 360] | 154
CNC(=O)c1ccc(-c2ccc3c(n2)Oc2ccccc2[C@@H]3C(C)(C)C(=O)Nc2nncs2)cc1OC [Example 361] | 14.6
CN(C)C(=O)c1ccc(-c2ccc3c(n2)Oc2ccccc2C3C(C)(C)C(=O)NC(C)(C)C)cc1 (stereo not shown) [Example 362] | 805
Cc1nc(NC(=O)C(C)(C)C2c3ccccc3Oc3nc(-c4ccc(C(=O)N(C)C)cc4)ccc32)sc1C (stereo not shown) [Example 365] | 18.3
CN(C)C(=O)c1ccc(-c2ccc3c(n2)Oc2ccccc2C3C(C)(C)C(=O)Nc2ccn(C)n2)cc1 (stereo not shown) [Example 366] | 200
CN(C)C(=O)c1ccc(-c2ccc3c(n2)Oc2ccccc2C3C(C)(C)C(=O)NCC(F)(F)F)cc1 (stereo not shown) [Example 367] | 692
CC(C)(C(=O)Nc1nncs1)[C@H]1c2ccccc2Oc2nc(C#N)ccc21 [Example 395] | 1.19
CC(C)(C(=O)Nc1nncs1)[C@H]1c2ccccc2Oc2nc(C(=O)NCc3ccccc3)ccc21 [Example 396] | 10.6
CC(=O)c1ccc2c(n1)Oc1ccccc1[C@@H]2C(C)(C)C(=O)Nc1nncs1 [Example 397] | 40.9
CC(C)(C(=O)Nc1nncs1)[C@H]1c2ccccc2Oc2nc(N3CCN(C(=O)N4CCCC4)CC3)ccc21 [Example 400] | 37.3
CN(C)C(=O)CNC(=O)Nc1ccc2c(n1)Oc1ccccc1[C@@H]2C(C)(C)C(=O)Nc1nncs1 [Example 402] | 699
CC(C)(C(=O)Nc1nncs1)[C@H]1c2ccccc2Oc2nc(N3CCC(C(=O)N4CCCC4)CC3)ccc21 [Example 403] | 61.2
Cc1ccn(-c2ccc3c(n2)Oc2ccccc2[C@@H]3C(C)(C)C(=O)Nc2nncs2)c(=O)c1 [Example 405] | 424

SMILES | Ki [nM]
CC(C)(C)OC(=O)N1CC=C(c2ccc3c(n2)Oc2ccccc2[C@@H]3C(C)(C)C(=O)Nc2nncs2)CC1 [Example 406] | 176
CC(C)(C(=O)Nc1nncs1)[C@H]1c2ccccc2Oc2nc(C3=CCNCC3)ccc21 [Example 407] | 958
CC(C)C(=O)N1CC=C(c2ccc3c(n2)Oc2ccccc2[C@@H]3C(C)(C)C(=O)Nc2nncs2)CC1 [Example 409] | 78.2
CC(C)(C(=O)Nc1nnc(C(F)(F)F)s1)[C@H]1c2ccccc2Oc2nc(-c3ccc(C(=O)N4CCCC4)c(F)c3)ccc21 [Example 412] | 22.3
CC(C)(C(=O)NC1=NC(=O)CS1)[C@H]1c2ccccc2Oc2nc(-c3ccc(C(=O)N4CCCC4)c(F)c3)ccc21 [Example 413] | 37.7
CC(C)(C(=O)Nc1cnns1)[C@H]1c2ccccc2Oc2nc(-c3ccc(C(=O)N4CCCC4)c(F)c3)ccc21 [Example 414] | 589
CC(=O)NC(C)(C)c1ccc(-c2ccc3c(n2)Oc2ccccc2[C@@H]3C(C)(C)C(=O)Nc2nncs2)cc1 [Example 415] | 64.1
CC(C)(N)c1ccc(-c2ccc3c(n2)Oc2ccccc2[C@@H]3C(C)(C)C(=O)Nc2nncs2)cc1 [Example 416] | 94.5
CCCCCCc1ccc2c(n1)Oc1ccccc1[C@@H]2C(C)(C)C(=O)Nc1nncs1 [Example 437] | 11.1
CN(C)C(=O)c1ccc(-c2ccc3c(n2)Oc2ccccc2C3C(C)(C)C(=O)Nc2ccccn2)cc1 (stereo not shown) [Example 438] | 53.1
CN(C)C(=O)c1ccc(-c2ccc3c(n2)Oc2ccccc2C3C(C)(C)C(=O)Nc2ncn[nH]2)cc1 (stereo not shown) [Example 439] | 65.8
CN(C)C(=O)c1ccc(-c2ccc3c(n2)Oc2ccccc2C3C(C)(C)C(=O)Nc2ncc[nH]2)cc1 (stereo not shown) [Example 440] | 21
CC(C)(C(=O)Nc1nncs1)[C@H]1c2ccccc2Oc2nc(-c3ccc4c(c3)CCC4=O)ccc21 [Example 451] | 5.57
CN(C)C(=O)n1cc(-c2ccc3c(n2)Oc2ccccc2[C@@H]3C(C)(C)C(=O)Nc2nncs2)cn1 [Example 453] | 17.6
CN(C)C(=O)c1ccc(-c2ccc3c(n2)Oc2ccccc2[C@@H]3C(C)(C)C(=O)Nc2nncs2)s1 [Example 462] | 3.78
Cc1nnc(NC(=O)C(C)(C)[C@H]2c3ccccc3Oc3nc(-c4cc(F)c(C(=O)N(C)C)c(F)c4)ccc32)s1 [Example 469] | 49.8
Cc1nnc(NC(=O)C(C)(C)[C@H]2c3ccccc3Oc3nc(-c4ccc(OC(C)C)c(Cl)c4)ccc32)s1 [Example 476] | 16.4
CN(C)C(=O)c1ccc(-c2ccc3c(n2)Oc2ccccc2C3C2(C(=O)Nc3nncs3)CCOCC2)cc1 (stereo not shown) [Example 483] | 426
CN(C)C(=O)c1ccc(-c2ccc3c(n2)Oc2ccccc2C3C2(C(=O)Nc3nncs3)CC2)cc1 (stereo not shown) [Example 489] | 144
